From US11643428B2, “Therapeutic drug for neurodegenerative disease and application thereof” (SHANGHAI PHARMACEUTICALS HOLDING CO., LTD., priority 2018, dated 2023)

Tested on: Human neural stem cells
Test: Neural stem cell proliferation under Aβ by EdU incorporation
Type: cell-based
Conditions: Aβ 5 μM pre-treatment 30 minutes, PL201 30 μM, 72 hours
Description: As the main pathogenic protein of AD, Aβ inhibits neural stem cell proliferation. In this example, the inventors detected the levels of human neural stem cell proliferation by EdU incorporation, and tested whether PL201 can alleviate the inhibition effect of Aβ on the proliferation of neural stem cells.
Human neural stem cells (3 L) were cultured in DMEM/F12 (containing N2/B27 and 10 ng/ml bFGF), plated to 96 well plates and incubated for 24 hours, then Aβ (5 μM) was added to pre-treat the cells for 30 minutes, and then PL201 (30 μM) was added. After co-incubation for 72 hours, the proliferation level of neural stem cells was detected by EdU staining.

With `COc1cc(/C=C/C(=O)OC2OC(C)C(O)C(O)C2O)ccc1O` [PL201, (α-L-rhamnopyranosyl) ferulic acid ester] the “proliferation level of neural stem cells (EdU staining)” value was “significantly alleviate the inhibitory effect of Aβ”.
